# Results: patent US4167580A, “Compositions and method of use to treat arthritic disease with m-fluorobenzimidoylacetonitrile” (American Cyanamid Company, priority 1978, dated 1979)
# Columns and labels:
# [1] = system: Adjuvant Arthritis in Rats; test: Adjuvant induced arthritis in rats (chronic inflammation with joint destruction); format: in vivo, Royal Hart, Wistar strain rats; settings: once daily days 0-13
# Text: Adjuvant induced experimental polyarthritis is a specific systemic disease of the rat which shares interesting similarities with rheumatoid arthritis. Specifically, the histology of the two diseases bears a remarkable resemblance as shown by C. M. Pearson et al., Am. J. Pathol. 42, 73 (1963). E. M. Glenn, Am. J. Vet. Res. 27 (116), 339 (1966) has classified adjuvant induced polyarthritis as a crippling and permanent deformity resulting from diffuse connective tissue involvement around certain susceptible joints in the rat. Zahiri et al., Can. Med. Ass. J. 101, 269 (1969) have shown that the fusiform swelling of the distal joints is associated with edema, congestion and synovitis including pannus formation, all of which precede the ultimate destruction of bone and cartilage. Furthermore, Zahiri et al. indicate that the cartilage destruction in the joint is due to an invasive pannus which originates in the marginal synovium and extends across the articular surface to erode it. […] See S. Wong et al., J. Pharm. & Exptl. Ther. 185, 127 (1973) and G. R. Bobalick et al., Agents & Actions 4, 364 (1974). In a similar manner, inhibition of the progress of arthritis in paws of rats treated with the compounds of this invention also lessens associated joint deterioration.
# Groups of three Royal Hart, Wistar strain rats weighing 200±10 grams each were injected intradermally in the right hind paw with Freund's adjuvant (dried human tubercle bacilli in a mineral oil vehicle) at a dose of 2 mg./kg. of body weight. Test compounds were administered orally in a 1.5% staruh vehicle at various doses once daily on days 0 through 13 post challenge. Control rats were treated in a similar manner, but given only starch vehicle. On the 14th and 21st day post challenge the diameter of the injected paw (primary lesion) was measured by micrometer caliper. The volume of inflamed paws were estimated from these measurements and the results are expressed as percent inhibition of swelling as compared to controls. At the same time, the other inflamed sites, such as ears, paws and tail (secondary lesions) were observed and each rat was graded as to degree of inflammation and swelling present. The grading is based on a scale of 0 to 24, where 0 represents a complete absence of induced arthritic nodules and 24 represents the maximum degree of inflammation. The mean grade for each treated group is calculated and the effects of each compound are expressed as percent inhibition of the control grade. Table III records the results of these tests conducted with benzimidoylacetonitrile, m-fluorobenzimidoylacetonitrile and p-fluorobenzimidoylacetonitrile and known anti-inflammatory agents. The active compounds of the present invention suppress the progression of the arthritis and associated joint deterioration. Of particular interest is the low mortality observed with benzimidoylacetonitrile treated rats relative to either controls or rats treated with standard compounds.
# [2] = system: Erythema in Guinea Pigs; test: Ultraviolet induced erythema in guinea pigs, topical application; format: in vivo, Albino guinea pigs
# Protocol: Albino guinea pigs were depilitated on their flanks, the evening before testing, with a standard mixture of barium sulfide and gum acacia. On the morning of the test at 0 hour they were restrained in a plastic container which allows exposure of 3 circular spots. They were then exposed to ultraviolet irradiation from a "Hanovia" Kromayer lamp, model 10, for 60 seconds. Immediately after exposure to ultraviolet light, the guinea pigs were treated by dissolving the test compound in ethyl alcohol at various concentrations and swabbing the UV exposed areas with the aid of a cottom tipped applicator stick. At one and four hours, the degree of erythema for each of the three sites was assessed according to the following scoring system: 0=no erythema, 0.5=incomplete circle or faint erythema and 1.0=complete circle of distinct erythema. Thus, the maximum score for each animal was 3.0.
# [3] = system: Body Temperature of Pyretic Rats; test: Body temperature in yeast induced pyrexia; format: in vivo, Royal Hart, Wistar strain rats; settings: 250 mg./kg. by gavage 17 hours after yeast; measured 19 hours post challenge
# Protocol: The effect of benzimidoylacetonitrile on body temperature in yeast induced pyrexia was determined by the following procedure. Groups of three Royal Hart, Wistar strain rats weighing 80±5 grams were injected subcutaneously in the nape of the neck with 0.6 ml. of a 40% suspension of dried brewers yeast in distilled water. […] At 19 hours post challenge the rectal temperature of each rat was measured with an electric thermometer. Each dose response experiment was replicated one or more times.
# [4] = system: arthritic paw swelling; settings: Wong et al. 1973; Bobalick et al. 1974; cited from earlier work
# [5] = system: Carrageenin Induced Edema of the Rat Paw; test: Carrageenin induced edema of the rat paw (acute anti-inflammatory activity); format: in vivo, Royal Hart, Wistar strain rats; settings: 25 mg./kg. by gavage, 5 hours after drug (4 hours after carrageenin)
# Protocol: In determining the acute anti-inflammatory activity of benzimidoylacetonitrile, Royal Hart, Wistar strain rats ranging in weight from 80 to 90 grams were used. The rats were fasted overnight prior to dosing but had free access to water. The compound was administered in aqueous suspension, by gavage, in a volume of 1.7 ml. per 50 grams of rat [corresponds by hydration volume used by Winter et al., Proc. Soc. […] The phlogistic agent used was carrageenin prepared as a sterile 1% suspension in 0.9% aqueous sodium chloride for routine testing. A volume of 0.05 ml. was injected through a 26 gauge needle into the planter tissue of the right hind paw. Measurements were made 5 hours after drug administration (4 hours after carrageenin challenge). Volumes of both the normal and carrageenin inflamed feet were determined. The difference between the two measurements is considered to be the increased edema due to the carrageenin administration.
structure (smiles),measurement,setting,value
COc1ccc2c(c1)c(CC(=O)O)c(C)n2C(=O)c1ccc(Cl)cc1 [Indomethacin],"% Inhibition of Control Grade (secondary lesion), Day 14",[1]; 0.25 mg./kg. oral,22%
same,"% Inhibition of Control Grade (secondary lesion), Day 21",[1]; 0.25 mg./kg. oral,4%
same,"% Inhibition of Swelling (primary lesion), Day 14",[1]; 0.25 mg./kg. oral,30%
same,"% Inhibition of Swelling (primary lesion), Day 21",[1]; 0.25 mg./kg. oral,4%
same,Dead/Treated At 21 Days,[1]; 0.25 mg./kg. oral,0/9
same,"Mean Weight Gain, Day 14",[1]; 0.25 mg./kg. oral,51 grams
same,"Mean Weight Gain, Day 21",[1]; 0.25 mg./kg. oral,57 grams
same,"% Inhibition of Control Grade (secondary lesion), Day 14",[1]; 0.5 mg./kg. oral,25%
same,"% Inhibition of Control Grade (secondary lesion), Day 21",[1]; 0.5 mg./kg. oral,17%
same,"% Inhibition of Swelling (primary lesion), Day 14",[1]; 0.5 mg./kg. oral,40%
same,"% Inhibition of Swelling (primary lesion), Day 21",[1]; 0.5 mg./kg. oral,20%
same,Dead/Treated At 21 Days,[1]; 0.5 mg./kg. oral,5/54
same,"Mean Weight Gain, Day 14",[1]; 0.5 mg./kg. oral,53 grams
same,"Mean Weight Gain, Day 21",[1]; 0.5 mg./kg. oral,51 grams
same,"% Inhibition of Control Grade (secondary lesion), Day 14",[1]; 1 mg./kg. oral,34%
same,"% Inhibition of Control Grade (secondary lesion), Day 21",[1]; 1 mg./kg. oral,20%
same,"% Inhibition of Swelling (primary lesion), Day 14",[1]; 1 mg./kg. oral,46%
same,"% Inhibition of Swelling (primary lesion), Day 21",[1]; 1 mg./kg. oral,19%
same,Dead/Treated At 21 Days,[1]; 1 mg./kg. oral,9/54
same,"Mean Weight Gain, Day 14",[1]; 1 mg./kg. oral,63 grams
same,"Mean Weight Gain, Day 21",[1]; 1 mg./kg. oral,65 grams
same,"% Inhibition of Control Grade (secondary lesion), Day 14",[1]; 2 mg./kg. oral,38%
same,"% Inhibition of Control Grade (secondary lesion), Day 21",[1]; 2 mg./kg. oral,25%
same,"% Inhibition of Swelling (primary lesion), Day 14",[1]; 2 mg./kg. oral,51%
same,"% Inhibition of Swelling (primary lesion), Day 21",[1]; 2 mg./kg. oral,24%
same,Dead/Treated At 21 Days,[1]; 2 mg./kg. oral,8/57
same,"Mean Weight Gain, Day 14",[1]; 2 mg./kg. oral,68 grams
same,"Mean Weight Gain, Day 21",[1]; 2 mg./kg. oral,68 grams
same,Erythema Score (Avg.) 1 Hr.,"[2]; 0.25% in ethyl alcohol, maximum score 3.0, control 2.5",1.8
same,Erythema Score (Avg.) 4 Hr.,"[2]; 0.25% in ethyl alcohol, maximum score 3.0, control 3.0",2.5
same,Erythema Score (Avg.) 1 Hr.,"[2]; 0.5% in ethyl alcohol, maximum score 3.0, control 2.5",1.5
same,Erythema Score (Avg.) 4 Hr.,"[2]; 0.5% in ethyl alcohol, maximum score 3.0, control 3.0",2.4
same,Erythema Score (Avg.) 1 Hr.,"[2]; 1% in ethyl alcohol, maximum score 3.0, ethyl alcohol control 2.5",0.7
same,Erythema Score (Avg.) 4 Hr.,"[2]; 1% in ethyl alcohol, maximum score 3.0, ethyl alcohol control 3.0",2.5
same,Decrease In Body Temp.,[3],2.5 °C
same,arthritic paw swelling (in words),[4],inhibit arthritic paw swelling
same,joint and bone deterioration (in words),[4],prevent joint and bone deterioration
same,C/T Edema Ratio (edema of control animals/edema of treated animals),[5],2.9
